Laboratory results as given in PMC6688508 (Journal of medicinal chemistry, 2019).

How the values were obtained:
[1] = Mouse pharmacokinetic study, plasma and brain; type: in vivo, male Swiss Albino mice; conditions: mice
[2] = target: T1, MOR (Homo sapiens, UniProt P35372); conditions: in vitro; cited from earlier work
[3] = target: T1, MOR; conditions: in vitro; cited from earlier work; remark: listed apart in the source
[4] = 50 mg/kg intraperitoneal injection

T1 sequence (P35372 whole entry): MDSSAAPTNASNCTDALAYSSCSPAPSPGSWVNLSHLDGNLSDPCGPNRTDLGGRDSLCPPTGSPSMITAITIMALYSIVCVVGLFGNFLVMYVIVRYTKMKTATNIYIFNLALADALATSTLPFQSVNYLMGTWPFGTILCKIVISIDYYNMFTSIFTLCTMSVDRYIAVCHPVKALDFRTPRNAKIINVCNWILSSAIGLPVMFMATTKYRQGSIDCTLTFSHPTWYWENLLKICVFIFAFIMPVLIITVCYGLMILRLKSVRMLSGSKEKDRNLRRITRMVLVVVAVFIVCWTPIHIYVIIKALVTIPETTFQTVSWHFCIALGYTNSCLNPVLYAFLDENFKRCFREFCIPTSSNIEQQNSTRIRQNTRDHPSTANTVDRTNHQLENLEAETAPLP

Row | Compound | tolerability / clinical signs ([1]; 50 mg/kg intraperitoneal) | peak concentration in the brain [1, 4] | peak concentration in the plasma [1, 4] | EMAX, recruiting β-arrestin [2] | EMAX, activation of G protein signaling [3]
1 | Nc1cc(Oc2nccc3occc23)ccc1-c1cccc2nccn12 [Compound 40, 5-(Furo[3,2-c]pyridin-4-yloxy)-2-(imidazo[1,2-a]pyridin-5-yl)-aniline] | well tolerated and no clinical signs were observed | approximately 100 μM | approximately 100 μM | – | –
2 | COc1ccsc1CNCC[C@@]1(c2ccccn2)CCOC2(CCCC2)C1 [TRV130] | – | – | – | 15% | 84%
